Reference: patent EP0326329B1, “Quinazoline derivatives useful as insecticides” (Dow AgroSciences LLC, priority 1988, dated 1989)

Legend:
Type in all cases: in vivo
[1] = system: Erysiphe graminis tritici (powdery mildew); test: Greenhouse Test 1, foliar spray fungicide screen (POWD MDEW), host wheat; conditions: disease control rating, 400 ppm (+++ at 100 ppm)
[2] = system: Pyricularia oryzae (rice blast); conditions: disease control rating, foliar spray, host rice; 400 ppm (+++ at 100 ppm)
[3] = system: Puccinia recondita tritici (leaf rust); test: Greenhouse Test 1, foliar spray fungicide screen (LEAF RUST), host wheat; conditions: disease control rating, 400 ppm (+++ at 100 ppm)
[4] = system: Botrytis cinerea (gray mold); test: Greenhouse Test 1, foliar spray fungicide screen (GRAY MOLD), host grape berries; conditions: disease control rating, 400 ppm (+++ at 100 ppm)
[5] = system: Pseudoperonospora cubensis (downy mildew); test: Greenhouse Test 1, foliar spray fungicide screen (DOWN MDEW), host squash; conditions: disease control rating, 400 ppm (+++ at 100 ppm)
[6] = system: Cercospora beticola (leaf spot); test: Greenhouse Test 1, foliar spray fungicide screen (LEAF SPOT), host sugar beet; conditions: disease control rating, 400 ppm (+++ at 100 ppm)
[7] = system: Venturia inaequalis (apple scab); test: Greenhouse Test 1, foliar spray fungicide screen (APPL SCAB), host apple seedling; conditions: disease control rating, 400 ppm (+++ at 100 ppm)
[8] = system: Septoria tritici (leaf blotch); test: Greenhouse Test 1, foliar spray fungicide screen (LEAF BLOT), host wheat; conditions: disease control rating, 400 ppm (+++ at 100 ppm)
[9] = system: Southern corn rootworm (Diabrotica undecimpuctata howardi Barber); test: Mite/insect screen, soil treatment (CRW); conditions: Diabrotica, percent mortality, soil treatment, read-out: CRW RESULTS %; for mortality at 24 ppm: CRW rate 24.00 ppm; for mortality at 12 ppm: CRW rate 12.00 ppm
Procedure, shortened: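 Five 2–3 instar larvae were placed on dry sandy soil with a presoaked corn seed after the soil had received 1 mL of compound solution and dried 6–12 h; cups were kept capped at 23°C. Mortality (%) and phytotoxicity were read after standard exposure. Formulation: acetone/alcohol with emulsifiers, water-diluted.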

[10] = system: southern armyworm (Spodopetra eridania Cramer); test: Mite/insect screen, sprayed squash leaves (SAW); conditions: Spodoptera eridania, percent mortality, read-out: SAW RESULTS %; for mortality at 400 ppm: spray rate 400 ppm; for mortality at 200 ppm: spray rate 200 ppm
Procedure, shortened: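 Acetone/alcohol (50:50) + emulsifier blends 23 g/L and 13 g/L; water dilution to test concs. Spray both leaf surfaces to runoff, dry 1 h. For armyworm, 2 excised uninfested leaves into Petri dish with larvae. Readout: % mortality, phytotoxicity.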

[11] = system: Twospotted spider mites (Tetranychus urticae Koch); test: Mite/insect screen, sprayed squash cotyledons (SM); conditions: Tetranychus urticae, percent mortality, read-out: SM RESULTS %; for mortality at 400 ppm: spray rate 400 ppm; for mortality at 200 ppm: spray rate 200 ppm
Procedure, shortened: (§1)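 Percent mortality and phytotoxicity are the read-outs, assessed after standard exposure periods. Test solutions, made in 50:50 acetone/alcohol with two sulfonate/nonionic emulsifier blends and diluted in water, are sprayed to runoff on both leaf surfaces, which then dry for one hour.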

[12] = system: melon aphids (Aphis gossypii Glover); test: Mite/insect screen, sprayed squash cotyledons (MA); conditions: Aphis gossypii, percent mortality, read-out: MA RESULTS %; for mortality at 400 ppm: spray rate 400 ppm; for mortality at 200 ppm: spray rate 200 ppm
Procedure, shortened: as §1

Row | SMILES | POWD MDEW [1] | RICE BLAST [2] | LEAF RUST [3] | GRAY MOLD [4] | DOWN MDEW [5] | LEAF SPOT [6] | APPL SCAB [7] | LEAF BLOT [8] | mortality at 24 ppm [9] [%] | mortality at 400 ppm [10] [%] | mortality at 400 ppm [11] [%] | mortality at 400 ppm [12] [%] | mortality at 12 ppm [9] [%] | mortality at 200 ppm [10] [%] | mortality at 200 ppm [11] [%] | mortality at 200 ppm [12] [%]
1 | c1ccc(CCCc2ncnc3ccccc23)cc1 [Example 29, 4-(3-phenylpropyl)quinazoline] | + (+ = 20-89% control at 400 ppm) | +++ (+++ = 90-100% control at 100 ppm) | ++ (++ = 90-100% control at 400 ppm) | - (- = 0-19% control at 400 ppm) | ++ (++ = 90-100% control at 400 ppm) | - (- = 0-19% control at 400 ppm) | + (+ = 20-89% control at 400 ppm) | - (- = 0-19% control at 400 ppm) | 0 | 0 | 80 | 80 |  |  |  | 
2 | CC(=O)N(CCc1ccc2ccccc2c1)c1ncnc2ccccc12 [Example 81, N-[2-(2-naphthyl)ethyl]-N-4-quinazolinylacetamide] | + (+ = 20-89% control at 400 ppm) | ++ (++ = 90-100% control at 400 ppm) | + (+ = 20-89% control at 400 ppm) | - (- = 0-19% control at 400 ppm) | + (+ = 20-89% control at 400 ppm) | - (- = 0-19% control at 400 ppm) | + (+ = 20-89% control at 400 ppm) | - (- = 0-19% control at 400 ppm) | 0 | 0 | 0 | 0 | 0 | 0 | 50 | 0
3 | CC(CNc1nc(NCC(C)c2ccccc2)c2ccccc2n1)c1ccccc1 (centres unmarked) [Example 27, N,N'-bis(2-phenylpropyl)-2,4-quinazolinediamine] | - (- = 0-19% control at 400 ppm) | + (+ = 20-89% control at 400 ppm) | + (+ = 20-89% control at 400 ppm) | - (- = 0-19% control at 400 ppm) | +++ (+++ = 90-100% control at 100 ppm) | - (- = 0-19% control at 400 ppm) | - (- = 0-19% control at 400 ppm) | + (+ = 20-89% control at 400 ppm) |  |  |  |  | 0 | 0 | 0 | 0
4 | Clc1ccccc1OCCOc1ncnc2ccccc12 [Example 110, 4-[2-(2-chlorophenoxy)ethoxy]quinazoline] | - (- = 0-19% control at 400 ppm) | + (+ = 20-89% control at 400 ppm) | ++ (++ = 90-100% control at 400 ppm) | - (- = 0-19% control at 400 ppm) | + (+ = 20-89% control at 400 ppm) | - (- = 0-19% control at 400 ppm) | - (- = 0-19% control at 400 ppm) | - (- = 0-19% control at 400 ppm) | 0 | 0 | 0 | 0 | 0 | 0 | 0 | 0
5 | c1ccc(CCCNc2nc(NCCCc3ccccc3)c3ccccc3n2)cc1 [Example 24, N,N'-bis(3-phenylpropyl)-2,4-quinazolinediamine] | + (+ = 20-89% control at 400 ppm) | + (+ = 20-89% control at 400 ppm) | + (+ = 20-89% control at 400 ppm) | - (- = 0-19% control at 400 ppm) | +++ (+++ = 90-100% control at 100 ppm) | - (- = 0-19% control at 400 ppm) | - (- = 0-19% control at 400 ppm) | - (- = 0-19% control at 400 ppm) |  |  |  |  | 0 | 0 | 0 | 0
6 | CC(Cc1ccccc1)Nc1nc(NC(C)Cc2ccccc2)c2ccccc2n1 (centres unmarked) [Example 26, N,N'-bis(1-methyl-2-phenylethyl)-2,4-quinazolinediamine] | - (- = 0-19% control at 400 ppm) | ++ (++ = 90-100% control at 400 ppm) | ++ (++ = 90-100% control at 400 ppm) | - (- = 0-19% control at 400 ppm) | +++ (+++ = 90-100% control at 100 ppm) | + (+ = 20-89% control at 400 ppm) | - (- = 0-19% control at 400 ppm) | + (+ = 20-89% control at 400 ppm) |  |  |  |  | 0 | 0 | 0 | 0
7 | c1csc(CCOc2ncnc3ccccc23)c1 [Example 54, 4-[2-(2-thienyl)ethoxy]quinazoline] | ++ (++ = 90-100% control at 400 ppm) | ++ (++ = 90-100% control at 400 ppm) | ++ (++ = 90-100% control at 400 ppm) | - (- = 0-19% control at 400 ppm) | ++ (++ = 90-100% control at 400 ppm) | + (+ = 20-89% control at 400 ppm) | + (+ = 20-89% control at 400 ppm) | + (+ = 20-89% control at 400 ppm) |  |  |  |  | 0 | 0 | 0 | 0
8 | CC(=O)N(CCc1ccc(-c2ccccc2)cc1)c1ncnc2ccccc12 [Example 108, N-[2-(1,1'-biphenyl)-4-ylethyl]-N-(4-quinazolinyl)acetamide] | + (+ = 20-89% control at 400 ppm) | +++ (+++ = 90-100% control at 100 ppm) | + (+ = 20-89% control at 400 ppm) | - (- = 0-19% control at 400 ppm) | +++ (+++ = 90-100% control at 100 ppm) | ++ (++ = 90-100% control at 400 ppm) | - (- = 0-19% control at 400 ppm) | +++ (+++ = 90-100% control at 100 ppm) | 0 | 0 | 90 | 20 | 0 | 0 | 60 | 30
9 | c1ccc(Oc2cccc(CCNc3ncnc4ccccc34)c2)cc1 [Example 38, N-[2-(3-phenoxyphenyl)ethyl]-4-quinazolinamine] | ++ (++ = 90-100% control at 400 ppm) | +++ (+++ = 90-100% control at 100 ppm) | +++ (+++ = 90-100% control at 100 ppm) | - (- = 0-19% control at 400 ppm) | +++ (+++ = 90-100% control at 100 ppm) | + (+ = 20-89% control at 400 ppm) | + (+ = 20-89% control at 400 ppm) | ++ (++ = 90-100% control at 400 ppm) | 100 | 40 | 90 | 80 | 0 | 40 | 0 | 0
10 | Fc1cccc2c(NCCc3ccc4ccccc4c3)ncnc12 [Example 31, 8-fluoro-N-[2-(2-naphthyl)ethyl]-4-quinazolinamine] | + (+ = 20-89% control at 400 ppm) | +++ (+++ = 90-100% control at 100 ppm) | +++ (+++ = 90-100% control at 100 ppm) | - (- = 0-19% control at 400 ppm) | ++ (++ = 90-100% control at 400 ppm) | + (+ = 20-89% control at 400 ppm) | - (- = 0-19% control at 400 ppm) | +++ (+++ = 90-100% control at 100 ppm) | 0 | 30 | 0 | 0 | 0 | 80 | 0 | 40
11 | Cc1ccc(CCNc2nc(NCCc3ccc(C)cc3)c3ccccc3n2)cc1 [Example 28, N,N'-bis[2-(4-methylphenyl)ethyl]-2,4-quinazolinediamine] | - (- = 0-19% control at 400 ppm) | + (+ = 20-89% control at 400 ppm) | ++ (++ = 90-100% control at 400 ppm) | - (- = 0-19% control at 400 ppm) | + (+ = 20-89% control at 400 ppm) | - (- = 0-19% control at 400 ppm) | - (- = 0-19% control at 400 ppm) | - (- = 0-19% control at 400 ppm) |  |  |  |  | 0 | 0 | 0 | 0
